Laboratory results reported in US6759557B2, “Melanin production inhibitors and skincare products containing such inhibitors” (Takasago International Corporation, priority 2001, dated 2004).

Columns and labels:
melanoma cells B-16 = assay: Inhibiting effect on melanin synthesis in pigment cells (whiteness of cell residue observed by eye); format: cell-based; parameters: key to whiteness of cells rated by eye (melanin synthesis inhibition): −: same colour as the comparative solvent example (black); +: slight colour difference from the comparative solvent example (black grey); ++: clear colour difference from the comparative solvent example (white grey); +++: no colour in the cells (white); settings: for whiteness of cells rated by eye (melanin synthesis inhibition): 4 days, B-16 melanoma cells
Method: In plastic culture flasks ([…]), 5×10^4 of melanoma cells B-16 were respectively inoculated and cultivated at 37° C. in DMEM culture media each containing 10% of blood serum (Nippon Suisan Co. Ltd) in the presence of 5% of carbon dioxide. After two days of cultivation, test samples diluted with ethanol were added to the culture media, so as to set their concentrations, respectively, at 1.6, 3.1 and 6.3 ppm for the compounds of Formula (1) where X is —CO— or —CHOH—, and at 0.8, 1.6 and 3.1 ppm for the compounds of Formula (1) where X is —CO—CHOH—. The culture media were further cultivated for 4 days.
When the cultivation was terminated, the culture media were removed from the respective flasks and the remaining cells were rinsed with a phosphate buffer solution (PBS hereinafter). The cells in each flask were treated with a culture medium containing trypsin and EDTA (ethylenediaminetetracetic acid) to yield cell suspensions. The latter were subjected to centrifugation, and the cells were recovered.
The obtained cells were once washed with PBS. The residues were observed by eye, and their whiteness was rated as below.

Structure (SMILES)	whiteness of cells rated by eye (melanin synthesis inhibition) (melanoma cells B-16; 3.1 ppm in culture medium)	whiteness of cells rated by eye (melanin synthesis inhibition) (melanoma cells B-16; 6.3 ppm in culture medium)	whiteness of cells rated by eye (melanin synthesis inhibition) (melanoma cells B-16; 1.6 ppm in culture medium)	melting point [°C]	whiteness of cells rated by eye (melanin synthesis inhibition) (melanoma cells B-16; 0.8 ppm in culture medium)	melanin synthesis inhibiting activity (in words) (melanoma cells B-16; concentration not given)
OC1CCCCCCCCCCC1 [cyclododecanol, reference compound]	−	+				
CCCCCCCC(=O)CCCCCCC [8-pentadecanone, reference compound]	−	−				
O=C1CCCCCCCC=CCCCCCCC1 (mixture of isomers) [9(EZ)-cycloheptadecenone]	++	+++	+			
O=C1CCC/C=C/CCCCCCCCCC1 [5(E)-cyclohexadecenone]	++	+++	+			
O=C1CCCCCCCCCCCCCCCC1 [cycloheptadecanone]	++	+++	+			
CCCCCCCCC(=O)CCCCCCCC [9-heptadecanone, reference compound]	−	−				
O=C1CCCCCCCCCCCCCCCCC1O (centres unmarked) [2-hydroxycyclooctadecanone]	+++		++	31 to 32	+	
CC(O)CCC1C(C)CCCC1(C)C (centres unmarked) [tetrahydroionol, reference compound]	+	++	−			
O=C1CCCCCCCC=CCCCCCC1O (centres unmarked) [2-hydroxy-8-cyclohexadecenone]	+		−			
CCCCCCCCCCCCCC(=O)CC [3-hexadecanone, reference compound]	−	−				
O=C1CCCCCCCCCCC1 [cyclododecanone, reference compound]	−	+				
O=C1CCCCCCCCC=CCCCCCCC1O (centres unmarked) [2-hydroxy-9-cyclooctadecenone]	+++		++		+	
CC(=O)CCC1=C(C)CCCC1(C)C [dihydro-β-ionone, reference compound]	+	++	−			
OC1CCCCCCCCC=CCCCCCCCCC1 (mixture of isomers) [10(EZ)-cycloeicosenol]	+++	+++	++			
O=C1CCCCCCCCCCCCCCCCCCC1 [cycloeicosanone]	++	+++	+			
O=C1CCCCCCCCCCCCCCCCCCC1O (centres unmarked) [2-hydroxycycloeicosanone]	+++		+++		++	
CCCCCCCCCCCCC(C)=O [2-tetradecanone, reference compound]	−	−				
CC1CCCCCCCCCCCCC(=O)C1 (centres unmarked) [1-3-methylcyclopentadecanone]	++	+++	+			
O=C1CCCCCCCCCCCCCCC1O (centres unmarked) [2-hydroxycyclohexadecanone]	+		−			

Structure (SMILES)	whiteness of cells rated by eye (melanin synthesis inhibition) (melanoma cells B-16; 3.1 ppm in culture medium)	whiteness of cells rated by eye (melanin synthesis inhibition) (melanoma cells B-16; 6.3 ppm in culture medium)	whiteness of cells rated by eye (melanin synthesis inhibition) (melanoma cells B-16; 1.6 ppm in culture medium)	melting point [°C]	whiteness of cells rated by eye (melanin synthesis inhibition) (melanoma cells B-16; 0.8 ppm in culture medium)	melanin synthesis inhibiting activity (in words) (melanoma cells B-16; concentration not given)
O=C1CCCCCCCCCCCCCCC1 [cyclohexadecanone]	++	+++	+			
O=C1CCCCCCCCCCCCCC1 [cyclopentadecanone]	++	+++	+			
O=C1CCC/C=C\CCCCCCCCCC1 [5(Z)-cyclohexadecenone]	++	+++	+			
OC1CCCCCCCCCCCCCC1 [cyclopentadecanol]	++	+++	+			
O=C1CCCCCCCCCCCCCC1O (centres unmarked) [2-hydroxycyclopentadecanone, reference compound]	−	+++	−			
O=C1CCCCCCCCCCCCCCC=CCCCCCCCCCCCCC1O (centres unmarked) [2-hydroxy-15-cyclotriacontenone, reference compound]	−					
CC1C=CCCCCCCCCCCC(O)CC1 (mixture of isomers) [5(EZ)-4-methylcyclohexadecenol]	++	+++	+			
O=C1CCCCCCCCCC=CCCCCCCCC1O (centres unmarked) [2-hydroxy-10-cycloeicosenone]	+++		+++		++	
OC1CCCCCCCCCCCCCCC1 [cyclohexadecanol]	++	+++	+			
OC1CCCCCCCC=CCCCCCCC1 (mixture of isomers) [9(EZ)-cycloheptadecenol]	++	+++	+			
OC[C@H]1O[C@@H](Oc2ccc(O)cc2)[C@H](O)[C@@H](O)[C@@H]1O [arbutin, reference compound]	+	++	−			much weaker melanin-synthesis inhibiting activities
CC1C=CCCCCCCCCCCC(=O)CC1 (mixture of isomers) [5(EZ)-4-methylcyclohexadecenone]	++	+++	+			
CC1/C=C/CCCCCCCCCCC(=O)CC1 (centres unmarked) [5(E)-4-methylcyclohexadecenone]	++	+++	+			
OC1CCCCCCCCCCCCCCCC1 [cycloheptadecanol]	++	+++	+			
O=C1CCCCCCCCCCCCCCCCCCCCCCC1O (centres unmarked) [2-hydroxycyclotetracosanone]	+++		+++	39 to 40	++	
O=C1CCCCCCCCC=CCCCCCCCCC1 (mixture of isomers) [10(EZ)-cycloeicosenone]	+++	+++	++			
OC1CCCC=CCCCCCCCCCC1 (mixture of isomers) [5(EZ)-cyclohexadecenol]	++	+++	+			
O=C1CCCCCCCCCCCC=CCCCCCCCCCC1O (centres unmarked) [2-hydroxy-12-cyclotetracosenone]	+++		+++		++	
